Source: US20160280641A1, “Method for refining 2-nito-4-methylsulfonyl benzoic acid and intermediate thereof” (priority 2013, published 2016)

Experiment: Ames test of mesotrione products
Assay type: cell-based
Conditions: mesotrione products made from the fine 2-nitro-4-methylsulfonyl benzoic acids obtained by different processes
Description: The fine 2-nitro-4-methylsulfonyl benzoic acids obtained by different processes are transformed into mesotrione products, and activities thereof are tested in Ames tests, wherein Ames responses are negative.

SMILES: CS(=O)(=O)c1ccc(C(=O)C2C(=O)CCCC2=O)c([N+](=O)[O-])c1 [mesotrione, 2-(4-methanesulfonyl-2-nitrobenzoyl)-1,3-cyclohexanedione]
- Ames responses: negative
